Results published in the Kinase Knowledgebase extract (Sharma et al. 2016).

Tests used:
EGFR (human) [1] = target: EGFR (human) (UniProt P00533); conditions: a431
EGFR (murine) = EGFR (murine) (UniProt P00533); conditions: balb/mk cells
EGFR = EGFR (UniProt P00533)
EGFR (human) [2] = target: EGFR (human) (UniProt P00533); conditions: a431, concentration not given here

EGFR (murine), sequence (P00533 whole entry, looked up): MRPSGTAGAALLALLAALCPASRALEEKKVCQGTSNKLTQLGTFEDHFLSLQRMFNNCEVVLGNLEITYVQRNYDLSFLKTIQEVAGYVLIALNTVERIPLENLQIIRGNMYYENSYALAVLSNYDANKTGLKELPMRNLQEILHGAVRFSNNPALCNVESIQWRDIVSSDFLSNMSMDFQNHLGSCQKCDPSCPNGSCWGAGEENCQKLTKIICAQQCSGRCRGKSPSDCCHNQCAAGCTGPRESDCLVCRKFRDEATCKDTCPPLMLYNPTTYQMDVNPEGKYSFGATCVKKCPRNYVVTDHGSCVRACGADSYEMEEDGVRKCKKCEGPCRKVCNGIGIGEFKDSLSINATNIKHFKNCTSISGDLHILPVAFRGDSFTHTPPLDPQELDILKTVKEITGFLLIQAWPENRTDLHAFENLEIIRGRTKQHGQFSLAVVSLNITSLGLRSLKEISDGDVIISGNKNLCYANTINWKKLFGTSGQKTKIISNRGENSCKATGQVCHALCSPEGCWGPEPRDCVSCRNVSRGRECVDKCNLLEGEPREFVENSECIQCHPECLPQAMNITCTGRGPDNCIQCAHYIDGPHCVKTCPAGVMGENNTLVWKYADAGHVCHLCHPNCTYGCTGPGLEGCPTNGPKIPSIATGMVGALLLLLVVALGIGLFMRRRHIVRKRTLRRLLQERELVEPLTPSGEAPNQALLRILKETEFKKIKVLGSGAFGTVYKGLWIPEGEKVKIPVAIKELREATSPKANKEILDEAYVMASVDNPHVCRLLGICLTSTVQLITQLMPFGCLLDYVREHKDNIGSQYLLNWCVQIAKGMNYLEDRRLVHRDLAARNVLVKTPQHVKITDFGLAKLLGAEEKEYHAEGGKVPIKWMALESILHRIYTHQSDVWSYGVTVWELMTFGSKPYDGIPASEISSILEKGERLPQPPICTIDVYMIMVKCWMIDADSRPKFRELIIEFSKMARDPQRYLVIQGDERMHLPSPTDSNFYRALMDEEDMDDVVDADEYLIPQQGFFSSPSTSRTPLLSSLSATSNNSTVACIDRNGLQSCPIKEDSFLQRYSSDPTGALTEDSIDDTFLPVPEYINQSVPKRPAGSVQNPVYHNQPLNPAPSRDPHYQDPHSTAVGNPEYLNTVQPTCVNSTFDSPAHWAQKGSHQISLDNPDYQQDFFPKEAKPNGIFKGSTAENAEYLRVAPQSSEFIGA
EGFR (human), sequence (P00533 whole entry, looked up): as above
EGFR, sequence (P00533 whole entry, looked up): as above

SMILES	IC50 (EGFR (human) [1])	IC50 (EGFR (murine))	other results
C=C(CN1CCN(C)CC1)C(=O)c1ccc(OCc2ccccc2)cc1	> 100 µM	0.95 µM	IC50 (EGFR): 1.5 µM
C=C(CN1CCOCC1)C(=O)c1ccc(OCc2ccccc2)cc1			inhibition (EGFR (human) [2]): 100%
O=C(CCN1CCOCC1)c1ccc(OCc2ccccc2)cc1	> 100 µM		
CCOC(=O)C1CCN(CCC(=O)c2ccc(OCc3ccccc3)cc2)CC1	> 100 µM		
N#CC(C#N)=Cc1cc(O)c(O)c(O)c1		31.1 µM	IC50 (EGFR): 70 µM
C=C(CN1CCCCC1)C(=O)c1ccc(OCc2ccccc2)cc1	> 100 µM		
C=C(CN(C)C)C(=O)c1ccc(OS(=O)(=O)c2ccc(C(=O)O)cc2)cc1		> 50 µM	
CN(C)CCCC(=O)c1ccc(OCc2ccccc2)cc1		> 50 µM	
C=C(CN(C)C)C(=O)c1ccc(OCc2ccccc2)c(O)c1	> 100 µM		
C=C(CN(C)C)C(=O)c1ccccc1	> 100 µM		
CC(CN(C)C)C(=O)c1ccc(OS(=O)(=O)c2ccc(C(=O)O)cc2)cc1 (stereo not given)		> 50 µM	
CN(C)CCC(=O)c1ccc(OCc2ccccc2)cc1	> 100 µM		
